Here are results for ten compounds from ChEMBL document CHEMBL1201862, “PubChem BioAssay data set” (2004).

Test systems include SNB-75; RXF 393; K562; NCI-H522; SN12C; NCI-H460; A549; SK-MEL-28; M14; OVCAR-5; UO-31; NCI-H23; HT-29; HL-60; EKVX; COLO 205; CAKI-1.
Assay in all cases: growth of human tumour cells (NCI), 48 h

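Cultured in 96-well plates, cells were exposed to test compound for 48 hours across five concentrations. GI50 = concentration required for 50% inhibition of growth.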 Activity calls are given as the source filed them. No stated cut-off is given here; in the data, active = GI50 up to about 1.1 µM and inactive = higher.

As to `C#CCCCCC#CC1CCCC1C1=CC(=O)c2ccccc21` (stereo not given), the GI50 in the test on SNB-75 was 5.45 µM (inactive); with RXF 393, 4.81 µM (inactive); in the test with K562 it was 2.4 µM (inactive); in the test on NCI-H522, 7.93 µM (inactive); with SN12C, 6.38 µM (inactive); in the test with NCI-H460, 15.3 µM (inactive). Besides, the GI50 in the test with A549 is 13.5 µM (inactive); with SK-MEL-28, 5.18 µM (inactive); with M14 it was 5.07 µM (inactive); in the test on OVCAR-5 it was 11.5 µM (inactive); with UO-31 it was 8.17 µM (inactive); with NCI-H23, 10.6 µM (inactive). Also, the GI50 with HT-29 was 4.5 µM (inactive); in the test on HL-60, 1.33 µM (inactive); in the test on EKVX, 14.8 µM (inactive); with COLO 205, 15.3 µM (inactive).

Take `COc1cc2c(cc1OC)C(Cl)C(c1ccc(Cl)cc1)=C2Cl` (stereo not given): the GI50 in the test on SNB-75 was 19.1 µM (inactive); in the test on K562, 7.66 µM (inactive); with NCI-H522 it was 12 µM (inactive); with SN12C, 17.5 µM (inactive); with NCI-H460, 13.5 µM (inactive); in the test on SK-MEL-28, 19.1 µM (inactive). The GI50 with M14 was 15.4 µM (inactive); in the test on UO-31, 16.8 µM (inactive); with NCI-H23, 14.2 µM (inactive); in the test with HT-29 it was 13.3 µM (inactive); with CAKI-1, 17.3 µM (inactive); in the test on HL-60 it was 11.4 µM (inactive). Besides, the GI50 is 9.86 µM (inactive) in the test on EKVX and 16.8 µM (inactive) in the test with COLO 205.

As to `CCCCc1c2c(nc3c1CCCC3=O)CCCC2`, the GI50 in the test with K562, in the test on NCI-H522, in the test with SN12C, in the test with NCI-H460, in the test with A549 and with SK-MEL-28 was > 100 µM (inactive) throughout. The GI50 in the test with M14, in the test with UO-31, in the test with NCI-H23, in the test with HT-29, in the test on HL-60 and with EKVX was > 100 µM (inactive) each time. The GI50 in the test with COLO 205 is > 100 µM (inactive).

On to `COC(c1cccc(C(O)(C(F)(F)F)C(F)(F)F)c1)(C(F)(F)F)C(F)(F)F`, for which the GI50 was 17.5 µM (inactive) with SNB-75; 20.4 µM (inactive) in the test on RXF 393; 13.5 µM (inactive) with NCI-H522; 18.3 µM (inactive) in the test on SN12C; 18.3 µM (inactive) in the test on NCI-H460; 16.6 µM (inactive) in the test on A549. Further, the GI50 was > 10 µM (inactive) with SK-MEL-28; 18.7 µM (inactive) with M14; 18.4 µM (inactive) with OVCAR-5; 19.9 µM (inactive) in the test on UO-31; 19.7 µM (inactive) in the test on NCI-H23; 17.5 µM (inactive) in the test on HT-29. Also, the figures for the GI50 with CAKI-1, in the test on EKVX and in the test on COLO 205 were 24.4 µM (inactive), 17.9 µM (inactive) and 19.3 µM (inactive), respectively.

Consider `O=C1/C(=C/c2ccccc2)CN(C(=O)Oc2ccc(Cl)cc2)C/C1=C\c1ccccc1`, for which the GI50 in the test with SNB-75 is 4.24 µM (inactive); in the test on RXF 393, 2.17 µM (inactive); in the test on K562, 1.76 µM (inactive); in the test with NCI-H522, 2.25 µM (inactive); with SN12C, 1.84 µM (inactive); in the test with NCI-H460, 2.44 µM (inactive). Also, the GI50 is 9.33 µM (inactive) in the test on A549; 2.1 µM (inactive) with SK-MEL-28; 1.53 µM (inactive) in the test on M14; 10.9 µM (inactive) with OVCAR-5; 4.75 µM (inactive) with UO-31; 3.22 µM (inactive) in the test on NCI-H23. For the same compound, the GI50 with HT-29 was 1.14 µM (inactive); with HL-60 it was 0.871 µM (active); in the test on EKVX it was 10 µM (inactive); in the test with COLO 205 it was 3.1 µM (inactive).

With `COc1cccc(NC(=O)CC(=O)n2nc(C)c(/N=N/c3ccccc3)c2C)c1`, the GI50 was 47.8 µM (inactive) with SNB-75; > 100 µM (inactive) in the test with NCI-H522; > 100 µM (inactive) in the test on SN12C; > 100 µM (inactive) in the test on A549; > 100 µM (inactive) with SK-MEL-28; > 100 µM (inactive) in the test on M14. Further, the GI50 was 65.6 µM (inactive) in the test with UO-31; > 100 µM (inactive) in the test on NCI-H23; > 100 µM (inactive) in the test on HT-29; > 100 µM (inactive) in the test on CAKI-1; 58.6 µM (inactive) in the test on EKVX; > 100 µM (inactive) with COLO 205.

On to `COC(=O)C12CC(c3ccccc31)C1C(=O)OC(=O)C12` (stereo not given), for which the GI50 with SNB-75 is 17.5 µM (inactive); in the test on RXF 393 it was > 100 µM (inactive); in the test with K562 it was > 100 µM (inactive); with NCI-H522, > 100 µM (inactive); in the test on SN12C, > 100 µM (inactive); in the test on NCI-H460 it was > 100 µM (inactive). The GI50 with A549, with SK-MEL-28, in the test with M14, with OVCAR-5, with UO-31 and in the test with NCI-H23 was > 100 µM (inactive) throughout. The GI50 in the test with HT-29, in the test on HL-60, in the test with EKVX and in the test on COLO 205 was > 100 µM (inactive) throughout.

For `CC(=O)c1ccc(NC(=O)C(=O)C(C#N)CC(C)(C)C=O)cc1` (stereo not given), the GI50 with K562, with NCI-H522, in the test with SN12C, with NCI-H460, in the test with A549 and in the test on SK-MEL-28 was > 100 µM (inactive) each time. For the same compound, the GI50 in the test on M14, in the test with OVCAR-5, in the test on UO-31, in the test on NCI-H23, in the test on HT-29 and with CAKI-1 was > 100 µM (inactive) in each case. Also, the GI50 in the test on HL-60, in the test with EKVX and in the test on COLO 205 was > 100 µM (inactive) throughout.

As for `Cc1ccccc1NC(=O)CSc1nnc(-c2ccc(/N=C\c3ccc(Cl)cc3)cc2)o1`, the GI50 in the test on SNB-75, in the test on RXF 393, in the test on K562, in the test on SN12C, in the test on NCI-H460 and in the test on A549 was > 100 µM (inactive) in each case. For the same compound, the GI50 with SK-MEL-28, with M14, in the test with UO-31, in the test on NCI-H23, in the test on HT-29 and in the test with HL-60 was > 100 µM (inactive) in each case. Also, the GI50 with EKVX and with COLO 205 was > 100 µM (inactive) each time.

Consider `CN(C)c1ccc(/C=C/C(=O)O)cc1`, for which the GI50 in the test with SNB-75, in the test with K562, in the test on NCI-H522, in the test on SN12C, with NCI-H460 and in the test on A549 was > 100 µM (inactive) in each case. Besides, the GI50 in the test with M14, in the test on OVCAR-5, with UO-31, in the test with HT-29, in the test on CAKI-1 and with HL-60 was > 100 µM (inactive) in each case. Also, the GI50 in the test on EKVX and in the test with COLO 205 was > 100 µM (inactive) in each case.
